Counter-ions that a name gives are not always drawn.
Key:
[1] = Test for stability: HPLC content of active ingredient after storage at temperature and humidity; type: physicochemical
Excerpt: This experiment is designed to confirm the stability of amlodipine salt. It is essential for a drug to have sufficient stability in order to be formulated into a specific form of preparation. In particular, it is especially important to have an atmospheric stability for a drug to be formulated into tablets or capsules while aqueous stability is more important when a drug is formulated into an injection type of preparation.

[2] = test system: Rats with congenital hypertension (SHR); test: Anti-hypertension activity, tail-cuff method; type: in vivo, rat; settings: oral
Procedure: Rats with congenital hypertension (SHR, male, 13-14 weeks old) were purchased from Charles River Co. (Japan). […] SHR were used those having systolic blood pressure of 170 mmHg or higher and each experimental group was composed of 8 rats. Blood pressure was measured using Multichannel 8000 (TSE Co., Germany) according to the tail-cuff method. […] […] The result of measurements was indicated in S.E.M. Statistical analysis of the measurements was performed by using Sigma Stat program (Jandel Co., USA) with respect to unpaired t-test and one-way analysis of variance (ANOVA) and the second evaluation was performed via Dunnett multiple comparisons test.

[3] = Light stability (UV); type: physicochemical
Excerpt: Table 4 represents the result of light stability of amlodipine gentisate salts of the present invention compared to that of amlodipine besylate and the total amount of UV light was 200 W·h/m^2.

[4] = test system: wild bird; settings: oral; cited from earlier work
[5] = test system: rat; settings: oral; cited from earlier work
[6] = Sprague-Dawley (printed: Sprague Dowry), rat, in vivo, po, 10 mg/kg
Procedure: The blood samples were centrifuged for 2 min at 14,000 rpm to obtain blood plasma. 80 μL of the blood plasma was mixed with 240 μL of methanol and vortexed for 10 sec and centrifuged again for 2 min at 14,000 rpm.

[7] = UV, total amount of UV light 200 W·h/m^2

Compound | Content of active ingredients at 40° C. with 75% humidity ([1]; 2 weeks) | Content of active ingredients at 60° C. with 75% humidity ([1]; 2 weeks) | Content of active ingredients at 40° C. with 75% humidity ([1]; 4 weeks) | Content of active ingredients at 60° C. with 75% humidity ([1]; 4 weeks) | Content of active ingredients at 40° C. with 75% humidity ([1]; 8 weeks) | Content of active ingredients at 60° C. with 75% humidity ([1]; 8 weeks) | Content of active ingredients at 40° C. with 75% humidity ([1]; initial) | Content of active ingredients at 60° C. with 75% humidity ([1]; initial) | Time after administration at which a significant decrease in blood pressure started [2] | Time after administration at which the decrease in blood pressure reached the peak [2] | Time after administration until which the anti-hypertension effect was significant [2] | Decrease in Blood Pressure (maximum anti-hypertension effect) ([2]; 2.5 mg/kg) | Decrease in Blood Pressure (maximum anti-hypertension effect) ([2]; 5.0 mg/kg) | Content of active ingredients [3, 7] | Content of active ingredients ([3]; initial) | LD50 [4] | LD50 [5] | Period of highest concentration in blood after administration [6] | Decrease in Blood Pressure (maximum anti-hypertension effect) ([2]; 1.25 mg/kg) | Light stability compared to conventional amlodipine besylate salts ([3]; under UV or visible light)
CCOC(=O)C1=C(COCCN)NC(C)=C(C(=O)OC)C1c1ccccc1Cl.O=S(=O)(O)c1ccccc1 (racemic) [(±)-amlodipine besylate] | 99.9% | 98.7% | 99.8% | 97.4% | 99.2% | 98.1% | 100% | 100% | 30 min | 1 h | 6 h | 20.8±7.3% | 28.6±7.5% | 88.3% | 100% |  |  |  |  | 
CCOC(=O)C1=C(COCCN)NC(C)=C(C(=O)OC)[C@@H]1c1ccccc1Cl.O=S(=O)(O)c1ccccc1 [S-(−)-amlodipine besylate] | 101.1% | 100.1% | 101.7% | 98.5% | 101.6% | 96.3% | 100% | 100% |  |  |  |  |  | 90.1% | 100% |  |  |  |  | 
O=S(=O)(O)c1ccccc1 [Benzenesulfonic acid, benzenesulfonic acid] |  |  |  |  |  |  |  |  |  |  |  |  |  |  |  | 75 mg/kg | 890 µL/kg |  |  | 
CCOC(=O)C1=C(COCCN)NC(C)=C(C(=O)OC)[C@@H]1c1ccccc1Cl [S-(−)-amlodipine gentisate, (S)-(−)-Amlodipine Gentisate Salt] | 102.9% | 100.1% | 103.5% | 103.0% | 102.3% | 99.9% | 100% | 100% | 30 min | 1 h | 6 h | 24.5±7.9% |  | 100.7% | 100% |  |  | 4 to 6 h | 19.8±5.5% | superior light stability

From patent US7442714B2, “Amlodipine gentisate and a method of its preparation” (SK Chemicals Co., Ltd., priority 2003, dated 2008)
